Like-named read-outs stand apart in the source and are kept apart here.
Columns and labels:
[1] = LD50 acute toxicity in mice, i.p. and p.o. (Weil method); details: mouse, in vivo
Experimental: The LD50 of the novel compounds of the invention was determined in mice, both i.p. and p.o., following the method described by C. S. Weil, Biometrics, 8, 249 (1952).

[2] = tested on: urinary bladder; assay: Cystometric recordings in conscious rats (urodynamic parameters); assay type: in vivo; details: conscious rat, perfusion started 60 min after administration
Experimental: The activity on the urodynamic parameters was detected by cystometric recordings, carried out in conscious rats, according to the method of […] et al, IRCS Medicinal Science, in press (1986), similar to that described by Sjogren, Acta Pharmacol. Toxicol., 39, 177 (1976). The intravesical pressure was recorded during a continuous infusion of saline (37° C.) into the urinary bladder at the constant rate of 0.15 ml/min. […] The perfusion started 60 minutes after administration of the compound.

SMILES	LD50 ([1]; ip, read-out: LD50 i.p.)	LD50 ([1]; po, read-out: LD50 p.o.)	% Change BVC (bladder volume capacity) ([2]; 30 mg/kg p.o.)	% Change MP (micturition pressure) ([2]; 30 mg/kg p.o.)	% Change BVC (bladder volume capacity) ([2]; 10 mg/kg p.o.)	% Change MP (micturition pressure) ([2]; 10 mg/kg p.o.)
CC1=C(C(=O)OCCCl)C(c2cccc3c(=O)c(C)c(-c4ccccc4)oc23)C(C(=O)OC(C)C)=C(C)N1 (stereo not drawn) [iii, Isopropyl beta-chloroethyl 2,6-dimethyl-4-(3-methylflavon-8-yl)-1,4-dihydropyridine-3,5-dicarboxylate]	> 1000 mg/kg	> 3000 mg/kg	+15%	-1%	–	–
COC(=O)C1=C(C)NC(C)=C(C(=O)OC)C1c1cccc2c(=O)c(C)c(-c3ccccc3)oc12 [i, Dimethyl 2,6-dimethyl-4-(3-methylflavon-8-yl)-1,4-dihydropyridine-3,5-dicarboxylate]	889 mg/kg	> 3000 mg/kg	+21%	-19%	+18%	-14%
CC1=C(C(=O)OCCN(C)Cc2ccccc2)C(c2cccc3c(=O)c(C)c(-c4ccccc4)oc23)C(C(=O)OC(C)C)=C(C)N1 (centres unmarked) [v, isopropyl 2-(N-benzyl-N-methylamino)ethyl 2,6-dimethyl-4-(3-methylflavon-8-yl)-1,4-dihydropyridine-3,5-dicarboxylate]	959 mg/kg	> 3000 mg/kg	+22%	-23%	+19%	-16%
CC1=C(C(=O)OCCN2CCCCC2)C(c2cccc3c(=O)c(C)c(-c4ccccc4)oc23)C(C(=O)OC(C)C)=C(C)N1 (centres unmarked) [iv, Isopropyl 2,N-piperidinoethyl 2,6-dimethyl-4-(3-methylflavon-8-yl)-1,4-dihydropyridine-3,5-dicarboxylate]	222 mg/kg	> 3000 mg/kg	–	–	–	–
C#CCOC(=O)C1=C(C)NC(C)=C(C(=O)OC)C1c1cccc2c(=O)c(C)c(-c3ccccc3)oc12 (centres unmarked) [xii, Methyl propargyl 2,6-dimethyl-4-(3-methylflavon-8-yl)-1,4-dihydropyridine-3,5-dicarboxylate]	597 mg/kg	> 3000 mg/kg	–	–	–	–
CC1=C(C(=O)OCCN(C)CCC(c2ccccc2)c2ccccc2)C(c2cccc3c(=O)c(C)c(-c4ccccc4)oc23)C(C(=O)OC(C)C)=C(C)N1 (centres unmarked) [vi, isopropyl 2-(N-(3,3-diphenylpropyl)-N-methylamino)ethyl 2,6-dimethyl-4-(3-methylflavon-8-yl)-1,4-dihydropyridine-3,5-dicarboxylate]	> 1000 mg/kg	> 3000 mg/kg	+31%	-1%	–	–
CCOC(=O)C1=C(C)NC(C)=C(C(=O)OC)C1c1cccc2c(=O)c(C)c(-c3ccccc3)oc12 (centres unmarked) [viii, Methyl ethyl 2,6-dimethyl-4-(3-methylflavon-8-yl)-1,4-dihydropyridine-3,5-dicarboxylate]	> 1000 mg/kg	> 3000 mg/kg	–	–	–	–

Source: patent US4806534A, “Therapeutically active flavonyl-1,4-dihydrophyridines” (Recordati S.A., Chemical & Pharmaceutical Company, priority 1985, dated 1989)
